Results on seven molecules are retold here after patent US20080022467A1, “Disazo dyes and their preparation and use” (ILFORD Imaging Switzerland GmbH, priority 2006, published 2008).

Data set [1] in a line: Light stability of printed patches (Weather-Ometer, xenon lamp). Further details: key to Light Stability (Class) on Recording Sheet A / Light Stability (Class) on Recording Sheet B / Light Stability (Class) on Recording Sheet C / Light Stability (Class) on Recording Sheet D / Light Stability (Class) on Recording Sheet E / Light Stability (Class) on Recording Sheet F / Light Stability (Class) on Recording Sheet G: A: excellent; B: good; C: satisfactory; D: unsatisfactory. The note with it: 20 megalux hours; for Light Stability (Class) on Recording Sheet A: A: HP Printing Paper HPP 1122 (paper), 20° C., 50% relative humidity; for Light Stability (Class) on Recording Sheet B: B: HP Premium Plus (polymer based); for Light Stability (Class) on Recording Sheet C: C: ILFORD Galerie Smooth Glossy (nanoporous); for Light Stability (Class) on Recording Sheet D: D: ILFORD Printasia Premium Photo Glossy Paper (nanoporous); for Light Stability (Class) on Recording Sheet E: E: ILFORD Galerie Classic Gloss Paper (polymer based); for Light Stability (Class) on Recording Sheet F: F: EPSON Premium Glossy Photo Paper (nanoporous); for Light Stability (Class) on Recording Sheet G: G: CANON Photo Paper Pro PR-101 (nanoporous). In kind it is physicochemical. As for the experimental part: (§1) The present invention, as far as it relates to recording liquids, is illustrated by the following examples using the disazo dyes of Table 1 according to the invention and dyes representing the state of the art. For each dye, 100 g of recording liquid were prepared by heating the necessary amount of dye (2.0 g-5.0 g), 6.0 g of ethylene glycol, 3.0 g of propylene-1,2-glycol, 3.0 g of 1-methyl-2-pyrrolidone, 0.3 g of an aqueous solution (50%) of Olin® 10G (available from Arch Chemicals Inc., Norwalk, USA), 0.3 g of Surfinol® 465 (available from Air Products and Chemicals Inc., Allentown, USA) and 0.1 g of Mergal® K 10N (available from Riedel-de-Haën, Seelze, Germany) together with water at a temperature of 50° C. under stirring for approximately 1 hour. The resulting solution was cooled down to a temperature of 20° C., its value of pH was adjusted to 7.5 and the solution was passed through a Millipore® filter of 0.3 μm pore diameter. The dye quantity was adjusted in such a way that the optical density of the printed image was similar for all dyes.
(§2) Homogeneously colored square patches with an approximate density of 1.40 were then printed, using these recording liquids, with an ink jet printer Canon BJC 8500 onto the following recording sheets: • A: HP Printing Paper HPP 1122 (paper) • B: HP Premium Plus (polymer based recording sheet) • C: ILFORD Galerie Smooth Glossy (nanoporous recording sheet) • D: ILFORD Printasia Premium Photo Glossy Paper (nanoporous recording sheet) • E: ILFORD Galerie Classic Gloss Paper (polymer based recording sheet) • F: EPSON Premium Glossy Photo Paper (nanoporous recording sheet) • G: CANON Photo Paper Pro PR-101 (nanoporous recording sheet)
The printed samples were irradiated using a Weather-Ometer® Ci35A (available from Atlas Material Testing Technology, Chicago, USA) with a 6500 W xenon lamp at a temperature of 20° C. and relative humidity of 50% until an illumination of 20 megalux hours was reached. The density loss was measured with a densitometer Spectrolino®. The percent density loss of initial density gives an indication of the light stability of the dyes on the printed recording sheet.

Data set [2] is described as follows: Stability against degradation by ozone of printed patches. In kind it is physicochemical. Set-up: key: A: excellent; B: good; C: satisfactory; D: unsatisfactory. The note with it: ozone 1 ppm, 30° C., 50% relative humidity; for Resistance against Degradation by Ozone (Class) on Recording Sheet C: C: ILFORD Galerie Smooth Glossy (nanoporous); for Resistance against Degradation by Ozone (Class) on Recording Sheet D: D: ILFORD Printasia Premium Photo Glossy Paper (nanoporous); for Resistance against Degradation by Ozone (Class) on Recording Sheet F: F: EPSON Premium Glossy Photo Paper (nanoporous); for Resistance against Degradation by Ozone (Class) on Recording Sheet G: G: CANON Photo Paper Pro PR-101 (nanoporous). As for the experimental part: as §1, §2
The optical density of the colored square patches was measured with a Spectrolino® densitometer. Afterwards, the printed samples were stored for a predetermined time (for example 48 hours) in an ozone chamber, model 903 (available from Satra/Hampden, Great Britain) at a temperature of 30° C., a relative humidity of the air of 50% and an ozone concentration of 1 ppm at a velocity of the circulating, ozone containing air of 13 mm/s. After storage, the samples were re-measured. The density differences of these two measurements, expressed as per cent of the initial density, are an indication of the amount of dye loss due to the exposure to ozone.

`O=S(=O)([O-])CCCSc1nc(Nc2ccc(N=Nc3cc(S(=O)(=O)[O-])c4cccc(S(=O)(=O)[O-])c4c3)cc2)nc(Nc2ccc(N=Nc3cc(S(=O)(=O)[O-])c4cccc(S(=O)(=O)[O-])c4c3)cc2)n1.[Na+].[Na+].[Na+].[Na+].[Na+]` [Dye No. 10]: in data set [1], the “Light Stability (Class) on Recording Sheet A” value is on record as “B”, the “Light Stability (Class) on Recording Sheet B” value is “A”, the “Light Stability (Class) on Recording Sheet C” value is on record as “A” and the “Light Stability (Class) on Recording Sheet D” value is given as “B”. In data set [1], the “Light Stability (Class) on Recording Sheet E” value is given as “B”, the “Light Stability (Class) on Recording Sheet F” value is “B” and the “Light Stability (Class) on Recording Sheet G” value is listed as “B”. In data set [2], the “Resistance against Degradation by Ozone (Class) on Recording Sheet C” value (“Resistance … on Recording Sheet C” for short) is “A”, the “Resistance against Degradation by Ozone (Class) on Recording Sheet D” value (“Resistance … on Recording Sheet D” below) was “A”, the “Resistance against Degradation by Ozone (Class) on Recording Sheet F” value (shortened to “Resistance … on Recording Sheet F”) is “A” and the “Resistance against Degradation by Ozone (Class) on Recording Sheet G” value (“Resistance … on Recording Sheet G” for short) is recorded as “A”.

As to `O=S(=O)([O-])CCNc1nc(Nc2ccc(N=Nc3cc(S(=O)(=O)[O-])c4cccc(S(=O)(=O)[O-])c4c3)cc2)nc(Nc2ccc(N=Nc3cc(S(=O)(=O)[O-])c4cccc(S(=O)(=O)[O-])c4c3)cc2)n1.[Na+].[Na+].[Na+].[Na+].[Na+]` [Dye No. 11], in data set [1], the “Light Stability (Class) on Recording Sheet A” value is “B”, the “Light Stability (Class) on Recording Sheet B” value is on record as “A”, the “Light Stability (Class) on Recording Sheet C” value is listed as “A” and the “Light Stability (Class) on Recording Sheet D” value is on record as “B”. Moreover, in data set [1], the “Light Stability (Class) on Recording Sheet E” value was “B”, the “Light Stability (Class) on Recording Sheet F” value is “A” and the “Light Stability (Class) on Recording Sheet G” value is on record as “A”. Also, in data set [2], the “Resistance … on Recording Sheet C” value is on record as “A”, the “Resistance … on Recording Sheet D” value is listed as “A”, the “Resistance … on Recording Sheet F” value is given as “A” and the “Resistance … on Recording Sheet G” value is given as “A”.

For `CN(CCS(=O)(=O)[O-])c1nc(Nc2ccc(N=Nc3cc(S(=O)(=O)[O-])c4cccc(S(=O)(=O)[O-])c4c3)cc2)nc(Nc2ccc(N=Nc3cc(S(=O)(=O)[O-])c4cccc(S(=O)(=O)[O-])c4c3)cc2)n1.[Na+].[Na+].[Na+].[Na+].[Na+]` [Dye No. 14], in data set [1], the “Light Stability (Class) on Recording Sheet A” value was “B”, the “Light Stability (Class) on Recording Sheet B” value is reported as “A”, the “Light Stability (Class) on Recording Sheet C” value is recorded as “A” and the “Light Stability (Class) on Recording Sheet D” value is “B”. Further, in data set [1], the “Light Stability (Class) on Recording Sheet E” value was “B”, the “Light Stability (Class) on Recording Sheet F” value is listed as “B” and the “Light Stability (Class) on Recording Sheet G” value was “B”. In data set [2], the “Resistance … on Recording Sheet C” value was “A”, the “Resistance … on Recording Sheet D” value is “A”, the “Resistance … on Recording Sheet F” value was “A” and the “Resistance … on Recording Sheet G” value is “A”.

`O=S(=O)([O-])CCCSc1nc(Nc2ccc(N=Nc3ccc4cc(S(=O)(=O)[O-])cc(S(=O)(=O)[O-])c4c3)cc2)nc(Nc2ccc(N=Nc3ccc4cc(S(=O)(=O)[O-])cc(S(=O)(=O)[O-])c4c3)cc2)n1.[Na+].[Na+].[Na+].[Na+].[Na+]` [Dye No. 15]: in data set [1], the “Light Stability (Class) on Recording Sheet A” value was “B”, the “Light Stability (Class) on Recording Sheet B” value is given as “A”, the “Light Stability (Class) on Recording Sheet C” value is given as “B” and the “Light Stability (Class) on Recording Sheet D” value is reported as “B”. In data set [1], the “Light Stability (Class) on Recording Sheet E” value was “B”, the “Light Stability (Class) on Recording Sheet F” value is reported as “B” and the “Light Stability (Class) on Recording Sheet G” value is listed as “B”. Further, in data set [2], the “Resistance … on Recording Sheet C” value is on record as “B”, the “Resistance … on Recording Sheet D” value is “A”, the “Resistance … on Recording Sheet F” value was “A” and the “Resistance … on Recording Sheet G” value is reported as “A”.

Take `O=S(=O)([O-])CCNc1nc(Nc2ccc(N=Nc3ccc4cc(S(=O)(=O)[O-])cc(S(=O)(=O)[O-])c4c3)cc2)nc(Nc2ccc(N=Nc3ccc4cc(S(=O)(=O)[O-])cc(S(=O)(=O)[O-])c4c3)cc2)n1.[Na+].[Na+].[Na+].[Na+].[Na+]` [Dye No. 16]: in data set [1], the “Light Stability (Class) on Recording Sheet A” value is “B”, the “Light Stability (Class) on Recording Sheet B” value is listed as “A”, the “Light Stability (Class) on Recording Sheet C” value is given as “B” and the “Light Stability (Class) on Recording Sheet D” value was “B”. In addition, in data set [1], the “Light Stability (Class) on Recording Sheet E” value is given as “B”, the “Light Stability (Class) on Recording Sheet F” value is recorded as “B” and the “Light Stability (Class) on Recording Sheet G” value was “B”. Moreover, in data set [2], the “Resistance … on Recording Sheet C” value was “A”, the “Resistance … on Recording Sheet D” value was “A”, the “Resistance … on Recording Sheet F” value was “A” and the “Resistance … on Recording Sheet G” value is on record as “A”.

As for `CN(CCS(=O)(=O)[O-])c1nc(Nc2ccc(N=Nc3ccc4cc(S(=O)(=O)[O-])cc(S(=O)(=O)[O-])c4c3)cc2)nc(Nc2ccc(N=Nc3ccc4cc(S(=O)(=O)[O-])cc(S(=O)(=O)[O-])c4c3)cc2)n1.[Na+].[Na+].[Na+].[Na+].[Na+]` [Dye No. 17], in data set [1], the “Light Stability (Class) on Recording Sheet A” value is “B”, the “Light Stability (Class) on Recording Sheet B” value is on record as “A”, the “Light Stability (Class) on Recording Sheet C” value is “A” and the “Light Stability (Class) on Recording Sheet D” value is “B”. Also, in data set [1], the “Light Stability (Class) on Recording Sheet E” value was “B”, the “Light Stability (Class) on Recording Sheet F” value was “B” and the “Light Stability (Class) on Recording Sheet G” value was “B”. Moreover, in data set [2], the “Resistance … on Recording Sheet C” value is given as “B”, the “Resistance … on Recording Sheet D” value is recorded as “A”, the “Resistance … on Recording Sheet F” value is “A” and the “Resistance … on Recording Sheet G” value is recorded as “A”.

`O=C([O-])c1cc(Nc2nc(Nc3ccc(N=Nc4cc(S(=O)(=O)[O-])c5cccc(S(=O)(=O)[O-])c5c4)cc3)nc(Nc3ccc(N=Nc4cc(S(=O)(=O)[O-])c5cccc(S(=O)(=O)[O-])c5c4)cc3)n2)cc(C(=O)[O-])c1.[Na+].[Na+].[Na+].[Na+].[Na+].[Na+]` [Dye No. 18]: in data set [1], the “Light Stability (Class) on Recording Sheet A” value was “B”, the “Light Stability (Class) on Recording Sheet B” value is on record as “A”, the “Light Stability (Class) on Recording Sheet C” value is “B” and the “Light Stability (Class) on Recording Sheet D” value is “B”. For the same molecule, in data set [1], the “Light Stability (Class) on Recording Sheet E” value is on record as “B”, the “Light Stability (Class) on Recording Sheet F” value is reported as “B” and the “Light Stability (Class) on Recording Sheet G” value is on record as “B”. Also, in data set [2], the “Resistance … on Recording Sheet C” value is “A”, the “Resistance … on Recording Sheet D” value is recorded as “A”, the “Resistance … on Recording Sheet F” value is “A” and the “Resistance … on Recording Sheet G” value is “A”.
